Measurements reported in patent publication US8901125B2, “Substituted bicyclic alkoxy pyrazole analogs as allosteric modulators of mGluR5 receptors” (Vanderbilt University, priority 2012, dated 2014).

How the values were obtained:
[1] = molecular target: human mGluR5a receptor (Homo sapiens, UniProt P41594); experiment: Cell-based functional assay (Ca2+ mobilization, FDSS), potentiation of glutamate EC20 response; conditions: H10H cell line; for Emax: maximum % effect in the concentration-response curve as percent of maximal glutamate response, glutamate EC20; for EC50: potentiation in presence of glutamate EC20, concentration in mol/L
Chain of human mGluR5a receptor (P41594 21-1180 isoform P41594-2 limits assumed): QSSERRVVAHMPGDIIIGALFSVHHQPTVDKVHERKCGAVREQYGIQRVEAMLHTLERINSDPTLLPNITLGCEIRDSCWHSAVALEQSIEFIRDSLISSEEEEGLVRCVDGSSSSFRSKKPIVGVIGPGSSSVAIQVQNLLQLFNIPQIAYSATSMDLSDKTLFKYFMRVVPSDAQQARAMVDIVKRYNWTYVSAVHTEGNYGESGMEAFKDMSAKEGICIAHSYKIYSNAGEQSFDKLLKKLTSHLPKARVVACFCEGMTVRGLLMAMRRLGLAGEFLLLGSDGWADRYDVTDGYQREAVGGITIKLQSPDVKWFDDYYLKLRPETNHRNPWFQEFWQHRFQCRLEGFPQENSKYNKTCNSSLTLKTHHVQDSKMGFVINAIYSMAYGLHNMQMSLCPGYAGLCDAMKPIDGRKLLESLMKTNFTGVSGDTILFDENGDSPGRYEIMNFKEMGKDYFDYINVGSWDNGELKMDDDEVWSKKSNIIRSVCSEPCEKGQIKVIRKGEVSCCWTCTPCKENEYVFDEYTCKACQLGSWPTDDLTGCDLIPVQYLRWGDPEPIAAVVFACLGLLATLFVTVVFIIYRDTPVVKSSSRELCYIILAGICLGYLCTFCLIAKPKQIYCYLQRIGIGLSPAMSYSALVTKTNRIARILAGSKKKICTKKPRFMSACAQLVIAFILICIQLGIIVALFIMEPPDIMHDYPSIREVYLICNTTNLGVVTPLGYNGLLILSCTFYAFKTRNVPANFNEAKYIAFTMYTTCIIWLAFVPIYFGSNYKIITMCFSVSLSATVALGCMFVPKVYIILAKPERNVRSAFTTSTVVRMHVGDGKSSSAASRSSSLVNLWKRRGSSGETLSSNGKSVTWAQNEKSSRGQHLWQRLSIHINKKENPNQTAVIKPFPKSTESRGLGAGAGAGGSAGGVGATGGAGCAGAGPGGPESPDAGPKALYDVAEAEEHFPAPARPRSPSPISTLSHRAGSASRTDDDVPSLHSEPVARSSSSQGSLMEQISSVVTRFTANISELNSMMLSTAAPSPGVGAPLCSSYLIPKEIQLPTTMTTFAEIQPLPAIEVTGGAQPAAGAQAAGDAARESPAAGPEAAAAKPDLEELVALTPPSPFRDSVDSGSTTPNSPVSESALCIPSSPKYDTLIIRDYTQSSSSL
Source text: Human mGluR5a cDNA in pCMV6-XL6 mammalian expression plasmid was purchased from OriGene Technologies, Inc. (catalogue number SC326357) and subcloned into pcDNA3.1(−). Human embryonic kidney (HEK)293A cells were then transfected with human mGluR5a pcDNA3.1(−) using LipofectAmine-2000 (Invitrogen) and monoclones were selected and tested for functional response using a Ca^2+ mobilization assay. Monoclones were named for the species (“H” for human) plus the location on the plate (e.g. “10H”).
HEK cells transfected with the human mGluR5a receptor (H10H or H12H cell line) were plated at 15,000 cells/well in clear-bottomed poly-D-lysinecoated assay plates (BD Falcon) in glutamate-glutamine-free growth medium and incubated overnight at 37° C. and 5% CO2. Cell-lines used were either the H10H or H12H cell-lines expressing the human mGluR5 receptor. The following day, the growth medium was removed and the cells were washed with assay buffer containing 1× Hank's balanced salt solution (Invitrogen, Carlsbad, Calif.), 20 mM HEPES, 2.5 mM probenecid, pH 7.4 and left with 20 μL of this reagent. Following this step, the cells were loaded with calcium indicator dye, fluo-4 AM, to a final concentration of 2 μM and incubated for 40-45 min at 37° C. The dye solution was removed and replaced with assay buffer. Cell plates were held for 10-15 min at room temperature and were then loaded into the Functional Drug Screening System 6000 (FDSS 6000, Hamamatsu, Japan).
After establishment of a fluorescence baseline for about 3 seconds, the compounds of the present invention were added to the cells, and the response in cells was measured. 2.3 minutes later an EC20 concentration of the mGluR5 receptor agonist glutamate was added to the cells, and the response of the cells was measured for about 1.7 minutes. All test compounds were dissolved and diluted to a concentration of 10 mM in 100% DMSO and then serially diluted into assay buffer for a 2× stock solution in 0.6% DMSO; stock compounds were then added to the assay for a final DMSO concentration of 0.3% after the first addition to the assay well. Calcium fluorescence measures were recorded as fold over basal fluorescence; raw data was then normalized to the maximal response to glutamate. Potentiation of the agonist response of the mGluR5 receptor in the present invention was observed as an increase in response to submaximal concentrations of glutamate in the presence of compound compared to the response to glutamate in the absence of compound.
The concentration-response curves of compounds of the present invention, obtained in the presence of EC20 of mGluR5 receptor agonist glutamate to determine positive allosteric modulation, were generated using Microsoft Excel with IDBS XLFit add-ins. The raw data file containing all time points was used as the data source in the analysis template. This was saved by the FDSS as a tab-delimited text file. Data were normalized using a static ratio function (F/F0) for each measurement of the total 350 values per well divided by each well's initial value. Data was then reduced as to peak amplitudes (Max Initial Min) using a time range that starts approximately 1 second after the glutamate EC20 addition and continues for approximately 40 seconds. This is sufficient time to capture the peak amplitude of the cellular Calcium response. Individual amplitudes were expressed as % EMax by multiplying each amplitude by 100 and then dividing the product by the mean of the amplitudes derived from the glutamate ECMax-treated wells. pEC50 values for test compounds were generated by fitting the normalized values versus the log of the test compound concentration (in mol/L) using a 4 parameter logistic equation where none of the parameters were fixed. Each of the three values collected at each concentration of test compound were weighted evenly. Individual values falling outside the 95% prediction limits of the curve fit were automatically excluded from the fit. […]

[2] = system: amphetamine-induced hyperlocomotion; experiment: Reversal of amphetamine-induced hyperlocomotion in rats; format: in vivo, male Sprague-Dawley rats; conditions: 10 mg/kg p.o.; amphetamine 1 mg/kg s.c.; intervals 13-24; rat
Description: The study was carried out using male Sprague-Dawley rats weighing 225 g-275 g, between 2-3 months old (Harlan, Inc., Indianapolis, Ind.). They were kept in the animal care facility certified by the American Association for the Accreditation of Laboratory Animal Care (AALAC) under a 12-hour light/dark cycle (lights on: 6 a.m.; lights off: 6 p.m.) and had free access to food and water. The experimental protocols performed during the light cycle were approved by the Institutional Animals Care and Use Committee of Vanderbilt University and conformed to the guidelines established by the National Research Council Guide for the Care and Use of Laboratory Animals
Locomotor activity was assessed as mean distance traveled (cm) in Smart Open Field locomotor activity test chambers (Hamilton-Kinder, San Diego, Calif.) with 16×16 photobeams with chambers measuring 43.2 cm (Length)×43.2 cm (Width)×30.5 cm (Height) (Med Associates, St. Albans, Vt.). The animals were habituated for 30 min and then dosed with vehicle or test compound. The rats were then placed into cages. At 60 min, all rats were injected subcutaneously with 1 mg/kg amphetamine or vehicle and then monitored for an additional 60 min. Animals are monitored for a total of 120 minutes.
Data are expressed as the mean (±SEM) distance traveled recorded in 5 min intervals over the test period. The data was analyzed using repeated measures analysis of variance (ANOVA) followed by post-hoc testing using Dunnett's test, when appropriate. A difference was considered significant when p≦0.05. The data for the dose-response studies were analyzed by a between-group analysis of variance. If there was a main effect of dose, then each dose group was compared with the vehicle amphetamine group. The calculations were performed using JMP IN 8 (SAS Institute, Cary, N.C.) statistical software and graphed using SigmaPlot9 (Saugua, Mass.).
Amphetamine sulfate was obtained from Sigma (Cat#A5880-1G; St. Louis, Mo.) and 10 mg was dissolved in 10 ml of water. […]

Row | SMILES | Emax [1] [%] | EC50 [1] [nM] | melting point [°C] | % Reversal of amphetamine-induced hyperlocomotion [2] [%]
1 | CN(C)c1cccc(N2CCn3nc(OCc4ccccc4)cc3C2=O)n1 [Example B15, 2-(benzyloxy)-5-(6-(dimethylamino)pyridin-2-yl)-6,7-dihydropyrazolo[1,5-a]pyrazin-4(5H)-one] | 61 | 25.7 | 115.3 | 32
2 | COc1cccc(F)c1CN1CCn2nc(OCc3ccccc3)cc2C1=O [Example B70] | 52 | 427 | 162.2 | –
3 | Cc1nccc(N2CCn3nc(OCc4ccccc4)cc3C2=O)n1 [Example B19] | 47 | 871 | 182.8 | –
4 | COc1c(Cl)cccc1CN1CCn2nc(OCc3ccccc3)cc2C1=O [Example B57, 2-(benzyloxy)-5-(3-chloro-2-methoxybenzyl)-6,7-dihydropyrazolo[1,5-a]pyrazin-4(5H)-one] | 42 | 75.9 | 232.7 | –
5 | O=C1c2cc(OCc3ccccc3)nn2CCN1CC1CC1(F)F (stereo not drawn) [Example B72] | 21 | > 30200 | 107.4 | –
6 | Cc1nc(N2CCn3nc(OCc4ccccc4)cc3C2=O)ccc1F [Example B17, 2-(benzyloxy)-5-(5-fluoro-6-methylpyridin-2-yl)-6,7-dihydropyrazolo[1,5-a]pyrazin-4(5H)-one] | 55 | 123 | 167.1 | 14

More lines, main results first:

Row | Emax [1] [%] | EC50 [1] [nM] | melting point [°C] | SMILES | % Reversal of amphetamine-induced hyperlocomotion [2] [%]
7 | 45 | 95.5 | 116.4 | O=C1c2cc(OCc3cccc(F)c3)nn2CCN1c1ccc(F)cc1 [Example B26, 2-((3-fluorobenzyl)oxy)-5-(4-fluorophenyl)-6,7-dihydropyrazolo[1,5-a]pyrazin-4(5H)-one] | 25
8 | 53 | 174 | 134.8 | CC1CN(c2ccc(F)cc2)C(=O)c2cc(OCc3ccccc3)nn21 (single isomer, unassigned) [Example B10] | –
9 | 52 | 87.1 | 229.9 | C[C@@H]1Cn2nc(OCc3ccccc3)cc2C(=O)N1c1ccc(F)cc1 [Example B9] | –
10 | 45 | 132 | 145.3 | COc1cc(N2CCn3nc(OCc4ccccc4)cc3C2=O)ccc1F [Example B8] | –
11 | 47 | 102 | 209.8 | Cc1cc(N2CCn3nc(OCc4ccccc4)cc3C2=O)ccc1F [Example B7] | –
